Experimental data as given in patent US20040234610A1, “Medical device and method for inhalation of aerosolized drug with heliox” (priority 2001, published 2004).
“And” between values parts separate entries of the source, which are not always exact repeats. Equal values may be shown once.

Experiment: Nebulized particle size distribution by Anderson Cascade Impactor, RES-Q-Neb (T and Y design) vs HOPE nebulizer
Format: physicochemical
Procedure: A study was conducted to compare the performance of two embodiments of the heliox nebulization system described herein (called the RES-Q-Neb™ Nebulizer) with a commercially available nebulizer (HOPE™, B&B Medical Technologies, Inc., Orangevale, Calif., USA) that is driven by air.
Measurements were done using an Anderson Cascade Impactor (ACI) operated at an air flow rate of 28.3 L/min. The nebulizers were connected one at a time to the same tee piece and collar. The ACI consisted of eight stages, a backup filter, and an inlet (USP throat).
Gas flows through the nebulizers and impactor were controlled with rotameters, which were set with the DryCal Flow Calubrator (BIOS International Co., Pomton Plains, N.J.).
Heliox (80% helium, 20% oxygen) at 18 L/min was used to drive the RES-Q-Neb Nebulizer and another 18 L/min of the heliox was introduced into the system at the reservoir bag side port. […] The HOPE nebulizer was driven with compressed air at 10 L/min (as directed in its included label and instructions), and 18 L/min of heliox was introduced into the system at a side port, as shown in FIG. 10.
A pre-running time was used for each test to stabilize the generation of aerosol. The RES-Q-Neb nebulizer was pre-run for 15 s, and the HOPE nebulizer was pre-run for 30 s. Six tests were run with the RES-Q-Neb nebulizer at the same conditions (3 with the “Y” adaptor and 3 with the “T” adaptor) and five tests were run with the HOPE nebulizer at the same conditions.
After each test, the ACI and empty nebulizers were disassembled and washed with deionized water. The wash water was collected and the amount of drug remaining or collected was determined using spectrophotometric analysis at 224 nm.
The particle sizes are expressed as 50% mass median aerodynamic diameters (MMAD).

[1] = HOPE nebulizer, compressed air 10 L/min nebulizer + heliox 18 L/min side port
[2] = HOPE nebulizer, compressed air 10 L/min nebulizer + heliox 18 L/min side port, mean of 5 tests
[3] = HOPE nebulizer, compressed air 10 L/min nebulizer + heliox 18 L/min side port, single tests, listed as Albuterol sulfate
[4] = RES-Q-Neb T design, heliox 18 L/min nebulizer + 18 L/min side port
[5] = RES-Q-Neb T design, heliox 18 L/min nebulizer + 18 L/min side port, mean of 3 tests
[6] = RES-Q-Neb T design, heliox 18 L/min nebulizer + 18 L/min side port, single tests, listed as Albuterol sulfate
[7] = RES-Q-Neb Y design, heliox 18 L/min nebulizer + 18 L/min side port (18-18 lpm)
[8] = RES-Q-Neb Y design, heliox 18 L/min nebulizer + 18 L/min side port, mean of 3 tests
[9] = RES-Q-Neb Y design, heliox 18 L/min nebulizer + 18 L/min side port, single tests, listed as Albuterol sulfate

For `CC(C)(C)NCC(O)c1ccc(O)c(CO)c1` (stereo not shown) [albuterol], which “0.7 ≦ Mean Fraction < 5.8 μm” value [1] is on record?
The value was 0.503.

And the “Mean Fraction < 0.7 μm” value [1]?
The value was 0.052.

And the “Mean Fraction at Midpoint = 1.52 μm” value [1]?
The value was 0.227.

What about the “Mean Fraction ≧ 5.8 μm” value [1] of the same compound?
Its value is 0.446.

And the “Mean Fraction, Collar” value [2]?
The value was 0.009.

And the “Mean Fraction, Filter (cut-size <0.4 micron)” value (shortened to “Mean Fraction, Filter”) [2]?
The value was 0.015.

What about the “Mean Fraction, Stage 0 (cut-size 9 micron)” value [2] of the same compound?
The value was 0.110.

And the “Mean Fraction, Stage 1 (cut-size 5.8 micron)” value [2]?
The value was 0.151.

What about the “Mean Fraction, Stage 2 (cut-size 4.7 micron)” value [2] of the same compound?
The value was 0.044.

What about the “Mean Fraction, Stage 3 (cut-size 3.3 micron)” value [2] of the same compound?
Its value is 0.099.

What about the “Mean Fraction, Stage 4 (cut-size 2.1 micron)” value [2] of the same compound?
Its value is 0.119.

What about the “Mean Fraction, Stage 5 (cut-size 1.1 micron)” value [2] of the same compound?
Its value is 0.227.

What about the “Mean Fraction, Stage 6 (cut-size 0.7 micron)” value [2] of the same compound?
The value was 0.014.

What about the “Mean Fraction, Stage 7 (cut-size 0.4 micron)” value [2] of the same compound?
Its value is 0.037.

What about the “Mean Fraction, Tee Piece” value [2] of the same compound?
The value was 0.060.

What about the “Mean Fraction, Throat (cut-size >9 micron)” value (“Mean Fraction, Throat” for short) [2] of the same compound?
The value was 0.034.

What about the “Mean Fraction, Tube” value [2] of the same compound?
The value was 0.082.

And the “Fraction, Stage 1 (cut-size 5.8 micron)” value [3]?
Its value is 0.139 and 0.164 and 0.154 and 0.138 and 0.160.

And the “Fraction, Stage 2 (cut-size 4.7 micron)” value [3]?
The value was 0.039 and 0.047 and 0.044 and 0.045.

What about the “Fraction, Stage 3 (cut-size 3.3 micron)” value [3] of the same compound?
The value was 0.088 and 0.110 and 0.109 and 0.090 and 0.099.

What about the “Fraction, Tee Piece” value [3] of the same compound?
The value was 0.066 and 0.056 and 0.058 and 0.052 and 0.069.

And the “Fraction, Throat (cut-size >9 micron)” value [3]?
The value was 0.033 and 0.037 and 0.036 and 0.030 and 0.035.

And the “Fraction, Tube” value [3]?
Its value is 0.105 and 0.077 and 0.073 and 0.081 and 0.074.

And the “0.7 ≦ Mean Fraction < 5.8 μm” value [4]?
The value was 0.697.

And the “Mean Fraction < 0.7 μm” value [4]?
The value was 0.218.

What about the “Mean Fraction at Midpoint = 1.52 μm” value [4] of the same compound?
Its value is 0.519.

And the “Mean Fraction ≧ 5.8 μm” value [4]?
Its value is 0.086.

What about the mean output rate [4] of the same compound?
Its mean output rate is 0.54 mL/min.

And the “Mean Fraction, Adapter” value [5]?
The value was 0.033.

What about the “Mean Fraction, Collar” value [5] of the same compound?
Its value is 0.008.

What about the “Mean Fraction, Filter” value [5] of the same compound?
The value was 0.044.

And the “Mean Fraction, Stage 0 (cut-size 9 micron)” value [5]?
Its value is 0.010.

What about the “Mean Fraction, Stage 1 (cut-size 5.8 micron)” value [5] of the same compound?
Its value is 0.015.

And the “Mean Fraction, Stage 2 (cut-size 4.7 micron)” value [5]?
Its value is 0.005.

What about the “Mean Fraction, Stage 3 (cut-size 3.3 micron)” value [5] of the same compound?
Its value is 0.009.

And the “Mean Fraction, Stage 4 (cut-size 2.1 micron)” value [5]?
The value was 0.061.

And the “Mean Fraction, Stage 5 (cut-size 1.1 micron)” value [5]?
The value was 0.519.

And the “Mean Fraction, Stage 6 (cut-size 0.7 micron)” value [5]?
The value was 0.103.

What about the “Mean Fraction, Stage 7 (cut-size 0.4 micron)” value [5] of the same compound?
Its value is 0.174.

What about the “Mean Fraction, T-Piece” value [5] of the same compound?
Its value is 0.017.

What about the “Mean Fraction, Throat” value [5] of the same compound?
The value was 0.003.

What about the “Fraction, Filter (cut-size <0.4 micron)” value [6] of the same compound?
Its value is 0.037 and 0.049 and 0.045.

And the “Fraction, Stage 7 (cut-size 0.4 micron)” value [6]?
The value was 0.148 and 0.166 and 0.207.

And the mean output rate (RES-Q-Neb Y design, heliox 18 L/min nebulizer + 18 L/min side port)?
The mean output rate was 0.59 mL/min.

And the “0.7 ≦ Mean Fraction < 5.8 μm” value [7]?
The value was 0.657.

And the “Mean Fraction < 0.7 μm” value [7]?
The value was 0.239.

What about the “Mean Fraction at Midpoint = 1.52 μm” value [7] of the same compound?
Its value is 0.422.

And the “Mean Fraction ≧ 5.8 μm” value [7]?
The value was 0.105.

And the “Mean Fraction, Adapter” value [8]?
The value was 0.040.

What about the “Mean Fraction, Collar” value [8] of the same compound?
Its value is 0.009.

What about the “Mean Fraction, Filter” value [8] of the same compound?
Its value is 0.053.

What about the “Mean Fraction, Stage 0 (cut-size 9 micron)” value [8] of the same compound?
Its value is 0.012.

What about the “Mean Fraction, Stage 1 (cut-size 5.8 micron)” value [8] of the same compound?
Its value is 0.019.

What about the “Mean Fraction, Stage 2 (cut-size 4.7 micron)” value [8] of the same compound?
Its value is 0.007.

What about the “Mean Fraction, Stage 3 (cut-size 3.3 micron)” value [8] of the same compound?
Its value is 0.010.

What about the “Mean Fraction, Stage 4 (cut-size 2.1 micron)” value [8] of the same compound?
The value was 0.072.

What about the “Mean Fraction, Stage 5 (cut-size 1.1 micron)” value [8] of the same compound?
The value was 0.422.

And the “Mean Fraction, Stage 6 (cut-size 0.7 micron)” value [8]?
The value was 0.146.

And the “Mean Fraction, Stage 7 (cut-size 0.4 micron)” value [8]?
Its value is 0.186.

What about the “Mean Fraction, Throat” value [8] of the same compound?
Its value is 0.004.

What about the “Mean Fraction, Y-Piece” value [8] of the same compound?
The value was 0.021.

And the “Fraction, Filter (cut-size <0.4 micron)” value [9]?
Its value is 0.056 and 0.060 and 0.043.

What about the “Fraction, Stage 1 (cut-size 5.8 micron)” value [9] of the same compound?
The value was 0.014 and 0.023 and 0.020.

And the “Fraction, Stage 6 (cut-size 0.7 micron)” value [9]?
Its value is 0.148 and 0.144.

And the “Fraction, Stage 7 (cut-size 0.4 micron)” value [9]?
Its value is 0.169 and 0.180 and 0.208.

And the “Fraction, Y-Piece” value [9]?
The value was 0.026 and 0.022 and 0.015.

What about the “less particles >5.8 μm, present device/method vs HOPE nebulizer” value (less than HOPE) of the same compound?
Its value is “approximately 34%”.

What about the “greater fraction of particles ≥0.7 and <5.8 μm (breathable range), present device/method vs HOPE nebulizer” value (more than HOPE) of the same compound?
The value was “approximately 20%”.

What about the “more particles <0.7 μm, present device/method vs HOPE nebulizer” value (more than HOPE) of the same compound?
The value was “about 15%”.

And the “more particles with a midpoint diameter of 1.52 μm, present device/method vs HOPE nebulizer” value (more than HOPE)?
Its value is “approximately 22%”.
